The target of test [1] is T1, diketoreductase (DKR) (Acinetobacter baylyi, UniProt B1P3E1, W222F).
T1 construct: full-length in pET22b(+), E. coli BL21(DE3); DEAE and Sephadex G-100 purified; homodimer, 283 residues per subunit
The test can be described thus: intrinsic Trp fluorescence quenching, quadratic fit. It counts as binding. The text has this: (§1) intrinsic Trp fluorescence quenching, quadratic fit on WT-DKR; diketoreductase (DKR)

The target of test [2] is T2, WT-DKR; diketoreductase (DKR) (Acinetobacter baylyi, UniProt B1P3E1).
T2 construct: full-length in pET22b(+), E. coli BL21(DE3); DEAE and Sephadex G-100 purified; homodimer, 283 residues per subunit
The description is as above. It is filed as binding.
Description: as §1
Target sequence in this assay (B1P3E1 entry or part of it W222L): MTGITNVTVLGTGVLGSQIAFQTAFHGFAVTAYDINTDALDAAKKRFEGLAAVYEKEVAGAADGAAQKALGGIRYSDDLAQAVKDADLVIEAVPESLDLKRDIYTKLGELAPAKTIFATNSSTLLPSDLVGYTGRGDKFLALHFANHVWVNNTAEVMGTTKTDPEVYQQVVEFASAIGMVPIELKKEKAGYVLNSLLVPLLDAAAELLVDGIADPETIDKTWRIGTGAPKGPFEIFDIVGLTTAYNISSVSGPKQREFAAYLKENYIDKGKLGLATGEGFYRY

For test [3], the target named is T3, diketoreductase (DKR) (Acinetobacter baylyi, UniProt B1P3E1, W222Y).
T3 construct: full-length in pET22b(+), E. coli BL21(DE3); DEAE and Sephadex G-100 purified; homodimer, 283 residues per subunit
T3 sequence (B1P3E1 entry or part of it W222Y): as the sequence (B1P3E1 entry or part of it W222L) above
The description is as above. It counts as binding.
Description: as §1

Test [4] addresses T4, diketoreductase (DKR) (Acinetobacter baylyi, UniProt B1P3E1, W222V).
T4 construct: full-length in pET22b(+), E. coli BL21(DE3); DEAE and Sephadex G-100 purified; homodimer, 283 residues per subunit
The description is as above. It counts as binding.
Description: as §1

Test [5] addresses T5, diketoreductase (DKR) (Acinetobacter baylyi, UniProt B1P3E1, W222M).
T5 construct: full-length in pET22b(+), E. coli BL21(DE3); DEAE and Sephadex G-100 purified; homodimer, 283 residues per subunit
The description is as above. It is filed as binding.
Description: as §1

Test [6] addresses T2, WT-DKR; diketoreductase (DKR). Described as above. It counts as binding.
Description: as §1
The source holds these as a separate data set.
Target sequence in this assay (B1P3E1 entry or part of it): as the sequence (B1P3E1 entry or part of it W222L) above

The target is the same in test [7]. The test can be described thus: NADH oxidation, absorbance. The following applies: 0.15 mM NADH constant, potassium phosphate pH 6.0; average of two measurements. It is filed as biochemical. The source says:
(§2) NADH oxidation, absorbance on WT-DKR; diketoreductase (DKR)
Target sequence in this assay (B1P3E1 entry or part of it): as the sequence (B1P3E1 entry or part of it W222L) above

The target of test [8] is T3, diketoreductase (DKR). Nature of the test: NADH oxidation, absorbance. It counts as biochemical. The following applies: 0.15 mM NADH constant, potassium phosphate pH 6.0; average of two measurements.
Description: as §2

Test [9] has as its target T6, WT-DKR; diketoreductase (DKR) (Acinetobacter baylyi, UniProt B1P3E1, W222F).
T6 construct: full-length in pET22b(+), E. coli BL21(DE3); DEAE and Sephadex G-100 purified; homodimer, 283 residues per subunit
The test can be described thus: NADH oxidation, absorbance. It counts as biochemical. The following applies: 0.15 mM NADH constant, potassium phosphate pH 6.0; average of two measurements.
Description: as §2

Test [10] deals with T7, diketoreductase (DKR) (Acinetobacter baylyi, UniProt B1P3E1, W222L).
T7 construct: full-length in pET22b(+), E. coli BL21(DE3); DEAE and Sephadex G-100 purified; homodimer, 283 residues per subunit
T7 sequence (B1P3E1 entry or part of it W222L): as above
The test can be described thus: NADH oxidation, absorbance. It is filed as biochemical. The conditions noted are these: 0.15 mM NADH constant, potassium phosphate pH 6.0; average of two measurements.
Description: as §2

The target in test [11] is T8, WT-DKR; diketoreductase (DKR) (Acinetobacter baylyi, UniProt B1P3E1, W222M).
T8 construct: full-length in pET22b(+), E. coli BL21(DE3); DEAE and Sephadex G-100 purified; homodimer, 283 residues per subunit
T8 sequence (B1P3E1 entry or part of it W222M): as the sequence (B1P3E1 entry or part of it W222L) above
Nature of the test: NADH oxidation, absorbance. It counts as biochemical. The following applies: 0.15 mM NADH constant, potassium phosphate pH 6.0; average of two measurements.
Description: as §2

Test [12] concerns the target T4, diketoreductase (DKR). The test can be described thus: NADH oxidation, absorbance. The conditions noted are these: 0.15 mM NADH constant, potassium phosphate pH 6.0; average of two measurements. It counts as biochemical.
Description: as §2

Where two headings read alike, the source gives them in different places.

T4 sequence (B1P3E1 entry or part of it W222V): as the sequence (B1P3E1 entry or part of it W222L) above
T1 sequence (B1P3E1 entry or part of it W222F): as the sequence (B1P3E1 entry or part of it W222L) above
T5 sequence (B1P3E1 entry or part of it W222M): as the sequence (B1P3E1 entry or part of it W222L) above
T6 sequence (B1P3E1 entry or part of it W222F): as the sequence (B1P3E1 entry or part of it W222L) above

A word on the Kd: it is the equilibrium constant for the complex coming apart. Read a low Kd as higher affinity. The term Km denotes the substrate concentration at which the rate is half of its maximum. Consider `O=C(CCl)c1ccccc1` [2-chloro-1-phenylethanone], for which the dissociation constant Kd is 484 µM at diketoreductase (DKR) [1]; 458 µM in [2]; 455 µM at diketoreductase (DKR) [3]; 507 µM at diketoreductase (DKR) [4]; 457 µM at diketoreductase (DKR) [5]; 460 µM in test [6]. For the same molecule, the Michaelis-Menten constant (Km) turned out to be 1.13 mM in [7]; 2.51 mM on diketoreductase (DKR) [8]; 4.18 mM in test [9]; 3.16 mM at diketoreductase (DKR) [10]; 2.8 mM in test [11]; 302 µM at diketoreductase (DKR) [12].

Source of the values: publication PMC4114983, “The “Gate Keeper” Role of Trp222 Determines the Enantiopreference of Diketoreductase toward 2-Chloro-1-Phenylethanone” (PLoS ONE, 2014).
